Here are results for 20 compounds from patent publication US5340833A, “Urokinase inhibitors” (Eisai Co., Ltd., priority 1992, dated 1994).

Several values for one entry are separate records, joined by “and”; a condition that tells them apart may be missing. Equal values may be shown once. Where a name gives a salt, the structure may show the parent alone. Read-outs that look alike come from different tables or passages of the source. Where only a bound is given, the exact number is not on record here.

In test [1] the target is T1, human high molecular weight urokinase (Homo sapiens, UniProt P00749).
T1 construct: human high molecular weight urokinase; purchased American Diagnostica, Greenwich, Conn
Briefly: Urokinase Direct Assay. The class given is biochemical. How it is done:
(i) A direct chromogenic assay in which urokinase cleaves a synthetic tripeptide p-nitroanilide (pNA) urokinase substrate.
Incubations were carried out at 37° C. for approximately 2 hours or until adequate yellow color developed. Color was quantitated by measuring absorbance at 405 nm (A405) using a Titertek Multiskan MCC/340 MK II microtiter plate spectrophotometer.

In test [2] the target is T2, urokinase (Homo sapiens, UniProt P00749).
T2 construct: human high molecular weight urokinase; purchased American Diagnostica, Greenwich, Conn
Briefly: Urokinase Indirect (Plasminogen-Linked) Assay. The class given is biochemical.
Procedure: (ii) An indirect plasminogen-linked assay in which urokinase proteolytically activates plasminogen, forming plasmin which then cleaves a synthetic tripeptide pNA plasmin substrate.
Incubations were carried out at 22° C. for 45-60 minutes or until adequate color developed. Color qas quantitated as in the urokinase direct assay above. Parallel incubations were performed with and without plasminogen, and corrected absorbance values were obtained by subtracting values obtained without plasminogen from those obtained with plasminogen, eliminating any contribution of direct cleavage, if any, of plasmin substrate by urokinase.

A further test deals with T3, human two-chain tPA (Homo sapiens, UniProt P00750).
T3 construct: human two-chain tPA was substituted for urokinase; purchased American Diagnostica
As to the kind of experiment: tPA Indirect (Plasminogen-Linked) Assay (tPA Direct Assay result where lower). The settings on record: for tPA/UPA ratio: ratio with respect to urokinase indirect plasminogen-linked IC50, larger = greater specificity for urokinase; for inhibition at 1000 µM: read-out: tPA activity observed relative to inhibitor-free controls. The class given is biochemical. The source says: (iv) Both direct and plasminogen-linked pNA assays for tPA, the other mammalian plasminogen activator and the key initiator of blood clot dissolution or fibrinolysis. Since urokinase and tPA share an absolute specificity for the same peptide bond in plasminogen, urokinase inhibitors designed to block cellular invasiveness must be highly specific for urokinase over tPA in order to avoid serious thrombotic side effects secondary to undesired blockage of normal fibrinolysis. […] Spectrozyme tPA®, American Diagnostica) was substituted for urokinase substrate.

The target of the next test is T4, human plasmin (Homo sapiens, UniProt P00747).
T4 construct: plasmin, the potent general protease produced by cleavage of plasminogen by either urokinase or tPA; purchased American Diagnostica
Briefly: Plasmin Assay. The class given is biochemical. The note with it: for PLM/uPA ratio: ratio with respect to urokinase indirect plasminogen-linked IC50, larger = greater specificity for urokinase; for inhibition at 1000 µM: read-out: PLASMIN activity observed relative to inhibitor-free controls. On the procedure:
(v) A chromogenic pNA assay for plasmin, the potent general protease produced by cleavage of plasminogen by either urokinase or tPA. Although urokinase initiates cellular invasiveness by generating plasmin, the additional importance of plasmin in tPA-mediated fibrinolysis dictates that plasmin itself should be free from inhibition by urokinase inhibitors designed as anti-invasiveness agents. […] All other assay conditions, as well as methods of color quantitation, were carried out as described above for the urokinase direct assay.

The test system of test [3] is HT1080 human fibrosarcoma cells. As to the kind of experiment: Cell-based [^3 H]Fibronectin Degradation Assay. The settings on record: plasminogen-dependent, FIG. 4. How it is done:
Fifty microliter volumes of HT1080 cell suspensions (harvested without trypsinization) containing 1×10^6 cells/ml were then added, and the incubations continued for 18 hours at 37° C. in a humidified atmosphere containing 5% CO2. Radioactivity levels in 50 μl aliquots of the supernatants was then determined by liquid scintillation counting.

Test [4] deals with urokinase. The settings on record: FIG. 2.
Where [5] appears, read: Table 3 column 4, simple number, unit inferred, read-out: uPA Indirect (plasminogen-linked) IC50.
Setting [6] is: tPA Indirect Plasminogen-Linked Assay, in rare cases direct assay result if lower, read-out: tPA IC50.

T4 sequence (P00747 581-810 limits assumed): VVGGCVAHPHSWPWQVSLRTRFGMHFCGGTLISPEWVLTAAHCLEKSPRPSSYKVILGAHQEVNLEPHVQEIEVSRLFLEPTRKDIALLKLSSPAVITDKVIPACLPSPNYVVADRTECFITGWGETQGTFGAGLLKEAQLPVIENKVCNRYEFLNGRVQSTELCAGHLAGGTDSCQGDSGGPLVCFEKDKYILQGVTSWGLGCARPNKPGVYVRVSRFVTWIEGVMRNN
T4 sequence (P00747 97-580 limits assumed): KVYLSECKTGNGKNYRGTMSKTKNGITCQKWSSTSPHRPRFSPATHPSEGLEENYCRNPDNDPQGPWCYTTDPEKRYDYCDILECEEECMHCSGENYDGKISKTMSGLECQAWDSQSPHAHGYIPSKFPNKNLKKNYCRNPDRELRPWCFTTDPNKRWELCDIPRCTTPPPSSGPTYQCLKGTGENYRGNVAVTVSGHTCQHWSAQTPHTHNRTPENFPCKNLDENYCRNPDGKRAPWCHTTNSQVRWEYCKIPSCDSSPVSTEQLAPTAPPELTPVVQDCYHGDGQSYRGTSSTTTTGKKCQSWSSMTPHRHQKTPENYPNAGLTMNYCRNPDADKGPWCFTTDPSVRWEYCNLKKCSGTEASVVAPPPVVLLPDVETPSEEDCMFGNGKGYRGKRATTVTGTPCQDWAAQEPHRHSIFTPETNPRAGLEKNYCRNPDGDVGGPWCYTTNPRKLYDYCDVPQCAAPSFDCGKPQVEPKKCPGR
T3 sequence (P00750 311-562 limits assumed): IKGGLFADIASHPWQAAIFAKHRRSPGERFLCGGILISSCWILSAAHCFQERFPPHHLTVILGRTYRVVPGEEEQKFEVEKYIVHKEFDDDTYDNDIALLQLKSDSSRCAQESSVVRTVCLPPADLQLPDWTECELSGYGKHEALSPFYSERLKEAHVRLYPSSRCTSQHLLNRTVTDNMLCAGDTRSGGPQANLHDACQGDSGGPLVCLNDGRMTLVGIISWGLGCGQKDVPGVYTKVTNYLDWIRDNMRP
T3 sequence (P00750 36-310 limits assumed): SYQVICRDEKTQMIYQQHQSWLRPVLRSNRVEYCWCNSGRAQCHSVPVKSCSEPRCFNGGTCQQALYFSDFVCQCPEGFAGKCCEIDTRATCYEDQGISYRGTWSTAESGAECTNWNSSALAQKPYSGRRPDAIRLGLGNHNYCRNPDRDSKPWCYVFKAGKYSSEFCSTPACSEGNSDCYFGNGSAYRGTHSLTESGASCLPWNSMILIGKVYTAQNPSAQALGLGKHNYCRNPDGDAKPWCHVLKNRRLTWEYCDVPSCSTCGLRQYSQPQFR

For `Cl.N=C(N)c1cc2ccccc2s1` [Compound 1, Benzo[b]thiophene-2-carboxamidine hydrochloride], the residual urokinase activity at 1000 µM in test [1] (read-out: uPA Direct: percentage of residual urokinase activity relative to inhibitor-free controls) is 3.5%. Besides, the IC50 (commonly the concentration that gives 50% inhibition) at urokinase [2] (setting [5]) turned out to be 4.9 µM. At human two-chain tPA, the tPA/UPA ratio is recorded as greater than 200 and the inhibition at 1000 µM came to 77%. Besides, on human plasmin, the PLM/uPA ratio is reported as greater than 200 and the inhibition at 1000 µM is 78%.

Consider `CC(C)C=Cc1cccc2sc(C(=N)N)cc12` [Compound 22, 4-(E/Z-3-Methylbut-1-enyl)benzo[b]thiophene-2-carboxamidine hydrochloride], for which the IC50 on urokinase [2] (setting [5]) came to 0.11 µM; at human two-chain tPA (setting [6]), 43 µM; on human plasmin (read-out: PLASMIN IC50), 244 µM. In addition, the tPA/UPA ratio at human two-chain tPA is listed as 391. For the same compound, on human plasmin, the PLM/uPA ratio came out at 2218. The “inhibition of cellular degradation of [^3 H]fibronectin” value in test [3] is reported as “effective inhibitors”.

Consider `N=C(N)c1cc2c(C=Cc3ccc4c(c3)OCO4)cccc2s1` [Compound 65, 4-[E/Z-2-(Benzo-1,3-dioxolan-5-yl)ethenyl]benzo[b]thiophene-2-carboxamidinehydrochloride], for which the IC50 on human two-chain tPA was determined as 25 µM; at human plasmin, 630 µM. In the test with urokinase [4], the “mode of urokinase inhibition” value is given as “competitive, reversible inhibition”.

With `N=C(N)c1cc2c(C=Cc3ccc4c(c3)OCCO4)cccc2s1` [Compound 66, 4-[E/Z,2-(Benzo-1,4-dioxan-6-yl)ethenyl]benzo[b]thiophene-2-carboxamidine hydrochloride], the IC50 at urokinase [2] (setting [5]) was 0.12 µM and 0.038 µM; on human two-chain tPA (setting [6]) it was 15 µM; at human plasmin (read-out: PLASMIN IC50) it was 174 µM. Also, the tPA/UPA ratio at human two-chain tPA was 395. For the same compound, the PLM/uPA ratio on human plasmin was found to be 4580.

Take `Cl.N=C(N)c1cc2c(/C=C/c3ccco3)cccc2s1` [Compound 67, 4-[E-2-(Furan-2-yl)ethenyl]benzo[b]thiophene-2-carboxamidine hydrochloride]: the half-inhibitory concentration (IC50) at urokinase [2] (setting [5]) turned out to be 0.195 µM; on human two-chain tPA (setting [6]), 26 µM; at human plasmin (read-out: PLASMIN IC50), 195 µM. At human two-chain tPA, the tPA/UPA ratio is recorded as 133. Besides, the PLM/uPA ratio on human plasmin is 1000.

On to `N=C(N)c1cc2c(/C=C/c3cccc4sc(C(=N)N)cc34)cccc2s1` [Compound 73, 4-[E-2-(2-Carboxamidinobenzothien-4-yl)ethenyl]benzo[b]thiophene-2-carboxamidine bis-hydrochloride], for which the IC50 on urokinase [2] (setting [5]) stood at 0.17 µM; at human two-chain tPA (setting [6]) it was 2.7 µM; at human plasmin (read-out: PLASMIN IC50) it was 25 µM. Also, on human two-chain tPA, the tPA/UPA ratio is listed as 15.9. The PLM/uPA ratio at human plasmin was found to be 147.

With `Cl.N=C(N)c1cc2c(C#Cc3ccco3)cccc2s1` [Compound 75, 4-[(Furan-2-yl)ethynyl]benzo[b]thiophene-2-carboxamidine hydrochloride], the IC50 on urokinase [2] (setting [5]) is 0.17 µM; on human two-chain tPA (setting [6]), 33 µM; on human plasmin (read-out: PLASMIN IC50) it was 288 µM. Besides, the tPA/UPA ratio on human two-chain tPA is 194. Further, the PLM/uPA ratio at human plasmin amounted to 1694.

Take `Cl.N=C(N)c1cc2c(C#Cc3ccc4c(c3)OCO4)cccc2s1` [Compound 77, 4-[(Benzo-1,3-dioxolan-5-yl)ethynyl]benzo[b]thiophene-2-carboxamidine hydrochloride]: the IC50 on urokinase [2] (setting [5]) is 0.059 µM; on human two-chain tPA (setting [6]), 8.4 µM; on human plasmin (read-out: PLASMIN IC50), roughly 250 µM. Moreover, the tPA/UPA ratio at human two-chain tPA amounted to 142. Besides, the PLM/uPA ratio entry at human plasmin is recorded as “≈ 4240”.

As to `Cl.N=C(N)c1cc2c(-c3ccc(-c4ccccc4)o3)cccc2s1` [Compound 78, 4-(5-Phenylfur-2-yl)benzo[b]thiophene-2-carboxamidine hydrochloride], the IC50 was 0.49 µM at urokinase [2] (setting [5]), 26 µM at human two-chain tPA (setting [6]) and roughly 250 µM on human plasmin (read-out: PLASMIN IC50). Moreover, on human two-chain tPA, the tPA/UPA ratio stood at 53. Moreover, at human plasmin, the PLM/uPA ratio entry is “≈ 500”.

With `Cl.N=C(N)c1cc2cc(Br)ccc2s1` [Compound 103, 5-Bromobenzo[b]thiophene-2-carboxamidine hydrochloride], on urokinase [2] (setting [5]), the IC50 came out at 3.5 µM. Moreover, at human two-chain tPA, the tPA/UPA ratio was no less than 400 and the inhibition at 1000 µM is 63%. Further, at human plasmin, the PLM/uPA ratio is on record as no less than 4000 and the inhibition at 1000 µM came to 98%.

Regarding `Cl.N=C(N)c1cc2cc(I)ccc2s1` [Compound 104, 5-Iodobenzo[b]thiophene-2-carboxamidine hydrochloride], the 50% inhibitory concentration (IC50) at urokinase [2] (setting [5]) came out at 2.4 µM. In addition, on human two-chain tPA, the tPA/UPA ratio was no less than 500 and the inhibition at 1000 µM was found to be 63%. Besides, at human plasmin, the PLM/uPA ratio is recorded as no less than 5000 and the inhibition at 1000 µM came out at 96%.

In the case of `C=Cc1ccc2sc(C(=N)N)cc2c1.Cl` [Compound 114, 5-(Ethenyl)benzo[b]thiophene-2-carboxamidine hydrochloride], the IC50 at urokinase [2] (setting [5]) was 1.6 µM; at human two-chain tPA (setting [6]) it was 37 µM; on human plasmin (read-out: PLASMIN IC50), 288 µM. Also, the tPA/UPA ratio on human two-chain tPA is given as 23. In addition, the PLM/uPA ratio at human plasmin is given as 180.

Turning to `N=C(N)c1cc2cc(C=CC3CC3)ccc2s1` [Compound 121, 5-(E/Z-2-Cyclopropylethenyl)benzo[b]thiophene-2-carboxamidine hydrochloride], the values for the IC50 on urokinase [2] (setting [5]), at human two-chain tPA (setting [6]) and at human plasmin (read-out: PLASMIN IC50) were 0.56 µM, 175 µM and 1050 µM, respectively. Besides, the tPA/UPA ratio at human two-chain tPA is recorded as 313. The PLM/uPA ratio at human plasmin is listed as 1875.

In the case of `N=C(N)c1ccc(/C=C/c2ccc3sc(C(=N)N)cc3c2)cc1` [Compound 122, 5-[E-2-(4-Carboxamidinophenyl)ethenyl]benzo[b]thiophene-2-carboxamidine bis-hydrochloride], the values for the IC50 at urokinase [2] (setting [5]), at human two-chain tPA (setting [6]) and on human plasmin (read-out: PLASMIN IC50) were 0.98 µM, 1.45 µM and 360 µM, respectively. Besides, the tPA/UPA ratio on human two-chain tPA is on record as 1.48. Further, at human plasmin, the PLM/uPA ratio is on record as 367.

Turning to `Cl.N=C(N)c1cc2cc(-c3ccccc3)ccc2s1` [Compound 124, 5-Phenylbenzo[b]thiophene-2-carboxamidine hydrochloride], at urokinase [2] (setting [5]), the IC50 turned out to be 1.2 µM. The tPA/UPA ratio on human two-chain tPA was 215. In addition, the IC50 on human two-chain tPA (setting [6]) turned out to be 258 µM. In addition, at human plasmin, the PLM/uPA ratio is recorded as no less than 10000 and the inhibition at 1000 µM turned out to be 90%.

In the case of `Cl.N=C(N)c1cc2cc(-c3ccco3)ccc2s1` [Compound 126, 5-(Furan-2-yl)benzo[b]thiophene-2-carboxamidine hydrochloride], the IC50 stood at 0.7 µM at urokinase [2] (setting [5]), 140 µM on human two-chain tPA (setting [6]) and 534 µM on human plasmin (read-out: PLASMIN IC50). In addition, the tPA/UPA ratio on human two-chain tPA came to 200. In addition, on human plasmin, the PLM/uPA ratio is recorded as 763.

In the case of `C=Cc1ccc2sc(C(=N)N)cc2c1SC.Cl` [Compound 201, 4-(Methylthio)-5-ethenylbenzo[b]thiophene-2-carboxamidine hydrochloride], the IC50 in test [1] is 4.4 µM; at urokinase [2] (uPA Indirect (plasminogen-linked) IC50, Table 3, unit inferred) it was 0.67 µM; on human two-chain tPA (setting [6]), 20 µM; at human plasmin (read-out: PLASMIN IC50), 43 µM. In addition, the tPA/UPA ratio at human two-chain tPA came to 30. Moreover, at human plasmin, the PLM/uPA ratio is listed as 65.

`COc1ccc2sc(C(=N)N)cc2c1Br.Cl` [Compound 204, 4-Bromo-5-methoxybenzo[b]thiophene-2-carboxamidine hydrochloride]: the IC50 on urokinase [2] (setting [5]) came out at 1.7 µM. Also, the tPA/UPA ratio at human two-chain tPA is on record as 251. Moreover, the IC50 on human two-chain tPA (setting [6]) was determined as 427 µM. Besides, at human plasmin, the PLM/uPA ratio is listed as no less than 750 and the inhibition at 1000 µM was determined as 69%.

For `C=CCOCc1cc2ccc3sc(C(=N)N)cc3c2s1` [Compound 208, 5-(Prop-2-en-1-yloxymethyl)thieno[4,5-b]benzo[b]thiophene-2-carboxamidine hydrochloride], the IC50 at urokinase [2] (setting [5]) was 0.3 µM; at human two-chain tPA (setting [6]), 57 µM; on human plasmin (read-out: PLASMIN IC50) it was 273 µM. The tPA/UPA ratio on human two-chain tPA stood at 190. Moreover, the PLM/uPA ratio on human plasmin is given as 910.

With `Cl.N=C(N)c1cc2ccc3ccccc3c2s1` [Compound 312, Naphtho[1,2-b]thiophene-2-carboxamidine hydrochloride], the results for the IC50 at urokinase [2] (setting [5]), on human two-chain tPA (setting [6]) and at human plasmin (read-out: PLASMIN IC50) were 1.9 µM, greater than 100 µM and greater than 100 µM, respectively. Besides, the tPA/UPA ratio on human two-chain tPA is reported as greater than 50. At human plasmin, the PLM/uPA ratio was greater than 50.
